Measured values taken from patent US20230091047A1 (priority 2019, published 2023).
Read-outs that look alike come from different tables or passages of the source.

How the values were obtained:
in vitro = assay type: cell-based; conditions: human, HepG2 or HepG2.117 cells, ATPlite, mean value
Procedure, shortened: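 Luminescent ATP quantitation served as the viability endpoint following a 3- or 4-day incubation with test compounds.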

[1] = tested on: HBV (HepG2.117 cell line, inducibly HBV producing); experiment: Anti-HBV activity: intracellular HBV DNA by real-time PCR in HepG2.117 cells after 3 days of treatment; assay type: cell-based, hepatitis B virus
Procedure, shortened: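 Antiviral effect is expressed through intracellular HBV DNA levels, determined by real-time PCR with a virus-specific probe. These levels were measured after 3 days of treatment with compound dilutions, in HepG2.117 cells induced to replicate HBV.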

[2] = 3-days incubation (not marked with *)
[3] = HepG2.117 cells, intracellular HBV DNA by real-time PCR, 3 days of treatment, mean value; read-out: EC50 (μM, mean value)
[4] = 3-days incubation (unmarked values)
[5] = Hepatitis B virus, HepG2.117, 72 h, HepG2.117 cells, 3 days of treatment, intracellular HBV DNA by real-time PCR; mean value; read-out: EC50 (μM, mean value)
[6] = Hepatitis B virus, HepG2.117, 72 h, HepG2.117 cells, intracellular HBV DNA by real-time PCR, 3 days of treatment, mean value; read-out: EC50 (μM, mean value)

| SMILES | CC50 at 3 days (in vitro; [2]) | EC50 [1, 3] | CC50 at 3 days (in vitro; [4]) | EC50 [1, 5] | EC50 [1, 6] |
| --- | --- | --- | --- | --- | --- |
| CNc1noc2cc(-n3c(NC(C)C)nc4c(c3=O)C[C@@H](C)N(C(=O)c3ccc(Cl)c(Cl)c3)C4)c(C)cc12 [Compound C447] | > 50 µM | 0.1 µM | – | – | – |
| CNC(=O)c1ccc(-n2c(N[C@@H](C)c3cccnc3)nc3c(c2=O)C[C@@H](C)N(C(=O)c2ccc(Cl)c(Cl)c2)C3)cc1 (single isomer, unassigned) [Compound C377b] | – | – | > 50 µM | 3.95 µM | – |
| CNC(=O)c1ccc(-n2c(NCc3cccc(-n4cncn4)c3)nc3c(c2=O)C[C@@H](C)N(C(=O)c2ccc(Cl)c(Cl)c2)C3)cc1 [Compound C543] | > 50 µM | – | – | – | 7.02 µM |
| COc1ccc(CNc2nc3c(c(=O)n2CC(C)C)CCN(C(=O)c2ccc(Cl)c(Cl)c2)C3)cc1 [Compound C67, 7-(3,4-dichlorobenzoyl)-2-{[(4-methoxyphenyl)methyl]amino}-3-(2-methylpropyl)-5,6,7,8-tetrahydropyrido[3,4-d]pyrimidin-4(3H)-one] | – | – | > 50 µM | 9.51 µM | – |
| COc1ccc(CNc2nc3c(c(=O)n2C2CCCC2)CCN(C(=O)c2ccc(Cl)c(Cl)c2)C3)cc1 [Compound C73, 3-cyclopentyl-7-(3,4-dichlorobenzoyl)-2-{[(4-methoxyphenyl)methyl]amino}-5,6,7,8-tetrahydropyrido[3,4-d]pyrimidin-4(3H)-one] | – | – | > 50 µM | 9.37 µM | – |
| CNC(=O)c1ccc(-n2c(NC(C)C)nc3c(c2=O)C[C@@H](C)N(C(=O)c2cnc4ccccc4n2)C3)cc1 [Compound C675] | > 50 µM | – | – | – | 1.6 µM |
| CC(C)Nc1nc2c(c(=O)n1-c1ccc(S(C)(=O)=O)cc1)CCN(C(=O)c1ccc3c(c1)CCO3)C2 [Compound C155, 7-(2,3-dihydro-1-benzofuran-5-carbonyl)-3-[4-(methanesulfonyl)phenyl]-2-[(propan-2-yl)amino]-5,6,7,8-tetrahydropyrido[3,4-d]pyrimidin-4(3H)-one] | – | – | > 50 µM | 5.29 µM | – |
| COc1ccc([C@H](C)Nc2nc3c(c(=O)n2-c2ccc(NC(C)=O)cc2)C[C@@H](C)N(C(=O)c2ccc(Cl)c(Cl)c2)C3)cc1 (single isomer, unassigned) [Compound C410b] | > 50 µM | 0.11 µM | – | – | – |
| CNC(=O)c1cnc(-n2c(N[C@@H](C)c3ccc(F)cc3)nc3c(c2=O)C[C@@H](C)N(C(=O)c2ccc(Cl)c(Cl)c2)C3)cn1 [Compound C614] | > 50 µM | – | – | – | 0.09 µM |
| COc1ccccc1-n1c(NC2CCC2)nc2c(c1=O)CCN(C(=O)c1ccc(Cl)c(Cl)c1)C2 [Compound C32, 2-(cyclobutylamino)-7-(3,4-dichlorobenzoyl)-3-(2-methoxyphenyl)-5,6,7,8-tetrahydropyrido[3,4-d]pyrimidin-4(3H)-one] | – | – | 29.5 µM | 19.9 µM | – |
| CNC(=O)c1ccc(-n2c(N3CCC[C@@H]3C3CC3)nc3c(c2=O)C[C@@H](C)N(C(=O)c2ccc(Cl)c(Cl)c2)C3)cc1 (single isomer, unassigned) [Compound C352, 4-[(6R)-2-[(2*R)-2-cyclopropylpyrrolidin-1-yl]-7-(3,4-dichlorobenzoyl)-6-methyl-4-oxo-5,6,7,8-tetrahydropyrido[3,4-d]pyrimidin-3(4H)-yl]-N-methylbenzamide] | – | – | 27.5 µM | 0.29 µM | – |
| COc1ccc(CNc2nc3c(c(=O)[nH]2)CCN(C(=O)c2ccc(Cl)c(C#N)c2)C3)cc1 [Compound C103, 2-chloro-5-[2-{[(4-methoxyphenyl)methyl]amino}-4-oxo-4,5,6,8-tetrahydropyrido[3,4-d]pyrimidine-7(3H)-carbonyl]benzonitrile] | – | – | > 50 µM | 18.3 µM | – |
| CNC(=O)c1ccc(-n2c(N[C@H](C)c3cc(C)no3)nc3c(c2=O)C[C@@H](C)N(C(=O)c2ccc(Cl)c(Cl)c2)C3)cc1 (single isomer, unassigned) [Compound C433a] | > 50 µM | – | – | – | 1.89 µM |
| CNC(=O)c1ccc(-n2c(NC(C)C)nc3c(c2=O)C[C@@H](C)N(C(=O)c2cc4c(Br)c(C)ccc4[nH]2)C3)cc1 [Compound C471] | 21.6 µM | – | – | – | 0.25 µM |
